Laboratory results taken from US20230416330A1, “Optimized GIP Peptide Analogues” (Antag Therapeutics ApS, priority 2019, published 2023).
Non-standard residues stand in square brackets, D forms with d. Residues, ends and D or L forms follow the SMILES beside them. *: point of attachment. C16 diacid = O=C(O)CCCCCCCCCCCCCCC(=O)*; Aib = CC(C)(N)C(=O)O

Experiments:
[1] = Physical stability: fibril formation in Thioflavin T (ThT) assay with agitation; assay type: physicochemical; settings: 25° C., agitation
Procedure, shortened: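 Peptides at 1, 5, 7.5 or 15 mg/ml in 50 mM sodium phosphate pH 7.4 or in water adjusted to pH 7.4 with NaOH, filtered 0.22 μm, with ThT added. Wells held a 3 mm silica bead under 300 rpm orbital agitation at 25° C. Emission at 486 nm tracked continuously; lag time = 10% of transition above baseline.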

[2] = Solubility by visual inspection of peptide solutions; assay type: physicochemical
Procedure, shortened: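 Peptides dissolved at 1, 5, 7.5 or 15 mg/ml in 50 mM sodium phosphate pH 7.4 or water adjusted to pH 7.4 with NaOH, with gentle mixing. Immediate solubility judged visually as a clear, colorless solution.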

human GIP receptor = biological target: T1, human GIP receptor (Homo sapiens, UniProt P48546); assay: cAMP assay Alternative 1 (CisBio assay), GIPR antagonism; assay type: cell-based; settings: for cAMP antagonism % inhib: Table 2B, % inhibition of Emax
T1 construct: host or cells: HEK-293 cells, transient transfection (Lipofectamine 2000), cDNA in pCMV-Script vector
T1 sequence (P48546 22-466): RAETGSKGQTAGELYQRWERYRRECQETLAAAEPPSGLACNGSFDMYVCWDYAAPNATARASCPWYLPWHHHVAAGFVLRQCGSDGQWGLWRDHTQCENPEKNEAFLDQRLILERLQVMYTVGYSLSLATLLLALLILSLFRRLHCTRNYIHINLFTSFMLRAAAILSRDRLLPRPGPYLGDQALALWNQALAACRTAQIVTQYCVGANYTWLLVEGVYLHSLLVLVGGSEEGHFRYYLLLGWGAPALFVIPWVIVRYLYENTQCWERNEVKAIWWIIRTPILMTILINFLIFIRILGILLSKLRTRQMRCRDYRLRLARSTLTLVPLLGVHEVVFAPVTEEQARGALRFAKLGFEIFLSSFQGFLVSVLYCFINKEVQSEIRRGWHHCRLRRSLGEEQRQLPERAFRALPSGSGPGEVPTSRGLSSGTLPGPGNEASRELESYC
Method: HEK293 cells were cultured in 10% CO2 and 37° C. in Dulbecco's modified Eagle's medium supplemented with 10% fetal bovine serum, 2 mM glutamine, 180 units/ml penicillin, and 45 µg/ml streptomycin. Transient transfection with hGIPR for the CisBio assay from Table 2C was performed by using Lipofectamine 2000.
The in vitro functional activity of compounds towards human GIP receptor can also be determined in HEK-293 cells transiently expressing the receptor. On the day of the assay, cells were resuspended in HBSS buffer (Gibco, 14025-50) supplemented with […] (Gibco, 15630-106), 0.1% Pluronic F-68 (Gibco, 24040-032) and 0.1% casein (Sigma, C4765), and plated in 384-well plates at a density of 5000 cells/well. The GIP peptide analogues of the present disclosure were diluted in HBSS buffer supplemented with 20 mM HEPES, 0.1% pluronic, 0.1% casein and 500 uM IBMX. […] The resulting decrease in intracellular cAMP was quantitatively determined using the CisBio cAMP Dynamic 2 HTRF Assay Kit. The assay is based on a competition between native cAMP produced by cells and cAMP labeled with the dye d2 for binding to a cryptate labeled antibody. The specific signal (i.e. energy transfer signal) is inversely proportional to the concentration of cAMP in the sample.
The cAMP-d2 conjugate and the antibody anti-cAMP-Cryptate, both diluted in lysis buffer provided in the kit, were added to the cells according to the manufacturer's protocol. The resulting competitive assay was incubated for 60 minutes at room temperature, and the signal was detected by using a PerkinElmer Envision® instrument with excitation at 320 nm and emission at 665 nm and 620 nm. The HTRF ratio (emission at 665 nm/620 nm*10,000) is inversely proportional to the amount of cAMP present and is converted to nM cAMP per well using a cAMP standard curve. The dose-response curves were fitted using the non-linear regression analysis (four-logistic parameter equation) in GraphPad Prism, whereby pIC50 values were estimated. To test for agonistic properties at the GIP receptor, compounds were diluted and added to cells as described above and incubated for 30 min at 37° C. The resulting increase in intracellular cAMP was determined using the CisBio cAMP Dynamic 2 HTRF Assay Kit as described above.
The dose-response curves were fitted using the non-linear regression analysis (four-logistic parameter equation) in GraphPad Prism, whereby pIC50 values were estimated.

Question: Which results are given for CC[C@H](C)[C@H](NC(=O)[C@H](CO)NC(=O)[C@H](Cc1ccc(O)cc1)NC(=O)[C@H](CC(=O)O)NC(=O)[C@H](CO)NC(=O)[C@@H](NC(=O)[C@H](Cc1ccccc1)NC(=O)[C@@H](NC(=O)CNC(=O)[C@@H](N)CCC(=O)O)[C@@H](C)O)[C@@H](C)CC)C(=O)N[C@@H](C)C(=O)N[C@@H](CCSC)C(=O)N[C@@H](CC(=O)O)C(=O)N[C@@H](CCCCN)C(=O)N[C@H](C(=O)N[C@@H](CCCCNC(=O)CCCCCCCCCCCCCCC(=O)O)C(=O)N[C@@H](CCC(N)=O)C(=O)N[C@@H](CCC(N)=O)C(=O)N[C@@H](CC(=O)O)C(=O)N[C@@H](Cc1ccccc1)C(=O)N[C@H](C(=O)N[C@@H](CC(N)=O)C(=O)N[C@@H](Cc1c[nH]c2ccccc12)C(=O)N[C@@H](CC(C)C)C(=O)N[C@@H](CC(C)C)C(=O)N[C@@H](C)C(=O)N[C@@H](CCC(N)=O)C(=O)N[C@@H](CCCCN)C(N)=O)C(C)C)[C@@H](C)CC [AT158, reference compound] (H-EGTFISDYSIAMDKIK(C16 diacid)QQDFVNWLLAQK-NH2; N-terminus assumed)?
Answer: Avr lag time ([1]; 1 mg/ml, TFA, Phosphate (7.4)): <18 h; Avr lag time ([1]; 5 mg/ml, TFA, MilliQ): <18 h; Visual appearance ([2]; 1 mg/ml, CI, MilliQ (7.9)): Turbid and Hazy; cAMP antagonism pIC50 (human GIP receptor; Table 2A, HEK-293 cells transiently expressing hGIPR, agonist GIP1-42 at EC50): 7.8

Question: With CC[C@H](C)[C@H](NC(=O)[C@H](CCCCN)NC(=O)[C@H](CCC(=O)O)NC(=O)[C@H](CCSC)NC(=O)C(C)(C)NC(=O)[C@@H](NC(=O)[C@H](CO)NC(=O)[C@H](Cc1ccc(O)cc1)NC(=O)[C@H](CCC(=O)O)NC(=O)[C@H](CO)NC(=O)[C@@H](NC(=O)[C@H](Cc1ccccc1)NC(=O)[C@@H](NC(=O)CNC(=O)[C@@H](N)CCC(=O)O)[C@@H](C)O)[C@@H](C)CC)[C@@H](C)CC)C(=O)N[C@@H](CCCCNC(=O)CCCCCCCCCCCCCCC(=O)O)C(=O)N[C@@H](CCC(N)=O)C(=O)N[C@@H](CCC(N)=O)C(=O)N[C@@H](CC(=O)O)C(=O)N[C@@H](Cc1ccccc1)C(=O)N[C@H](C(=O)N[C@@H](CCC(=O)O)C(=O)N[C@@H](Cc1c[nH]c2ccccc12)C(=O)N[C@@H](CC(C)C)C(=O)N[C@@H](CC(C)C)C(=O)N[C@@H](C)C(=O)N[C@@H](CCC(N)=O)C(=O)N[C@@H](CCCCN)C(=O)N1CCC[C@H]1C(=O)N[C@@H](CO)C(=O)N[C@@H](CO)C(=O)NCC(=O)N[C@@H](C)C(=O)N1CCC[C@H]1C(=O)N1CCC[C@H]1C(=O)N1CCC[C@H]1C(=O)N[C@@H](CO)C(=O)O)C(C)C [AT616] (H-EGTFISEYSI[Aib]MEKIK(C16 diacid)QQDFVEWLLAQKPSSGAPPPS-OH; N-terminus assumed) as the compound, how does the “Avr lag time (h)” value ([1]; 1 mg/ml, Na, MilliQ (7.7)) read?
Answer: The value was “fnd (Fnd = fibrils not detected within experiment time (96 hours) with agitation.)”.

Question: And the Visual appearance ([2]; 1 mg/ml, Na, MilliQ (7.7))?
Answer: The Visual appearance was “Clear”.

Question: What about the “cAMP antagonism % inhib” value (human GIP receptor) of the same compound?
Answer: Its value is 100%.

Question: Which results are given for CC[C@H](C)[C@H](NC(=O)[C@H](CCCCN)NC(=O)[C@H](CC(=O)O)NC(=O)[C@H](CCSC)NC(=O)C(C)(C)NC(=O)[C@@H](NC(=O)[C@H](CO)NC(=O)[C@H](Cc1ccc(O)cc1)NC(=O)[C@H](CC(=O)O)NC(=O)[C@H](CO)NC(=O)[C@@H](NC(=O)[C@H](Cc1ccccc1)NC(=O)[C@@H](NC(=O)CNC(=O)[C@@H](N)CCC(=O)O)[C@@H](C)O)[C@@H](C)CC)[C@@H](C)CC)C(=O)N[C@@H](CCCCNC(=O)CCCCCCCCCCCCCCC(=O)O)C(=O)N[C@@H](CCC(N)=O)C(=O)N[C@@H](CCC(N)=O)C(=O)N[C@@H](CC(=O)O)C(=O)N[C@@H](Cc1ccccc1)C(=O)N[C@H](C(=O)N[C@@H](CCC(=O)O)C(=O)N[C@@H](Cc1c[nH]c2ccccc12)C(=O)N[C@@H](CC(C)C)C(=O)N[C@@H](CC(C)C)C(=O)N[C@@H](C)C(=O)N[C@@H](CCC(N)=O)C(=O)N[C@@H](CCCCN)C(=O)N1CCC[C@H]1C(=O)N[C@@H](CO)C(=O)N[C@@H](CO)C(=O)NCC(=O)N[C@@H](C)C(=O)N1CCC[C@H]1C(=O)N1CCC[C@H]1C(=O)N1CCC[C@H]1C(=O)N[C@@H](CO)C(=O)O)C(C)C [AT665] (H-EGTFISDYSI[Aib]MDKIK(C16 diacid)QQDFVEWLLAQKPSSGAPPPS-OH; N-terminus assumed)?
Answer: Avr lag time (h) ([1]; 1 mg/ml, TFA, Phosphate (7.4)): fnd (Fnd = fibrils not detected within experiment time (96 hours) with agitation.); Avr lag time (h) ([1]; 5 mg/ml, Na, MilliQ (8)): fnd (Fnd = fibrils not detected within experiment time (96 hours) with agitation.); Avr lag time (h) ([1]; 7.5 mg/ml, Na, MilliQ (8)): fnd (Fnd = fibrils not detected within experiment time (96 hours) with agitation.); Avr lag time (h) ([1]; 15 mg/ml, Na, MilliQ (8)): fnd (Fnd = fibrils not detected within experiment time (96 hours) with agitation.); Visual appearance ([2]; 1 mg/ml, TFA, Phosphate (7.4)): Clear; Visual appearance ([2]; 7.5 mg/ml, Na, MilliQ (8)): Clear; Visual appearance ([2]; 15 mg/ml, Na, MilliQ (8)): Clear; IC50 (human GIP receptor): 0.15 nM; cAMP antagonism % inhib (human GIP receptor): 88%

Question: Which “Avr lag time (h)” value ([1]; 1 mg/ml, TFA, Phosphate (7.4)) does the source give for CC[C@H](C)[C@H](NC(=O)[C@H](CCCCN)NC(=O)[C@H](CC(=O)O)NC(=O)[C@H](CC(C)C)NC(=O)C(C)(C)NC(=O)[C@@H](NC(=O)[C@H](CO)NC(=O)[C@H](Cc1ccc(O)cc1)NC(=O)[C@H](CC(=O)O)NC(=O)[C@H](CO)NC(=O)[C@@H](NC(=O)[C@H](Cc1ccccc1)NC(=O)[C@@H](NC(=O)CNC(=O)[C@@H](N)CCC(=O)O)[C@@H](C)O)[C@@H](C)CC)[C@@H](C)CC)C(=O)N[C@@H](CCCCNC(=O)CCCCCCCCCCCCCCC(=O)O)C(=O)N[C@@H](CCC(N)=O)C(=O)N[C@@H](CCC(N)=O)C(=O)N[C@@H](CC(=O)O)C(=O)N[C@@H](Cc1ccccc1)C(=O)N[C@H](C(=O)N[C@@H](CCC(=O)O)C(=O)N[C@@H](Cc1c[nH]c2ccccc12)C(=O)N[C@@H](CC(C)C)C(=O)N[C@@H](CC(C)C)C(=O)N[C@@H](C)C(=O)N[C@@H](CCC(N)=O)C(=O)N[C@@H](CCCCN)C(=O)N1CCC[C@H]1C(=O)N[C@@H](CO)C(=O)N[C@@H](CO)C(=O)NCC(=O)N[C@@H](C)C(=O)N1CCC[C@H]1C(=O)N1CCC[C@H]1C(=O)N1CCC[C@H]1C(=O)N[C@@H](CO)C(=O)O)C(C)C [AT666] (H-EGTFISDYSI[Aib]LDKIK(C16 diacid)QQDFVEWLLAQKPSSGAPPPS-OH; N-terminus assumed) here?
Answer: Its value is “fnd (Fnd = fibrils not detected within experiment time (96 hours) with agitation.)”.

Question: What about the Visual appearance ([2]; 1 mg/ml, TFA, Phosphate (7.4)) of the same compound?
Answer: The Visual appearance was “Clear”.

Question: And the “cAMP antagonism % inhib” value (human GIP receptor)?
Answer: The value was 89%.
